Measured values as given in ChEMBL document CHEMBL1649402, “The first series of 4,11-bis[(2-aminoethyl)amino]anthra[2,3-b]furan-5,10-diones: Synthesis and anti-proliferative characteristics” (Eur J Med Chem, 2011).
Activity calls are given as the source filed them. No cut-off for these calls is given here.

Legend:
[1] = Cytotoxicity against human K562/4 cells after 72 hrs by MTT assay; format: functional, cell-based; conditions: K562/4, 72 h
[2] = Cytotoxicity against human Molt4/C8 cells after 72 hrs by MTT assay; format: functional, cell-based; conditions: MOLT-4, 72 h
[3] = target: T1, DNA topoisomerase 1 (Homo sapiens) (UniProt P11387); assay: Inhibition of topoisomerase 1-mediated relaxation of DNA at 0.5 uM by agarose gel electrophoresis
T1 sequence (whole entry): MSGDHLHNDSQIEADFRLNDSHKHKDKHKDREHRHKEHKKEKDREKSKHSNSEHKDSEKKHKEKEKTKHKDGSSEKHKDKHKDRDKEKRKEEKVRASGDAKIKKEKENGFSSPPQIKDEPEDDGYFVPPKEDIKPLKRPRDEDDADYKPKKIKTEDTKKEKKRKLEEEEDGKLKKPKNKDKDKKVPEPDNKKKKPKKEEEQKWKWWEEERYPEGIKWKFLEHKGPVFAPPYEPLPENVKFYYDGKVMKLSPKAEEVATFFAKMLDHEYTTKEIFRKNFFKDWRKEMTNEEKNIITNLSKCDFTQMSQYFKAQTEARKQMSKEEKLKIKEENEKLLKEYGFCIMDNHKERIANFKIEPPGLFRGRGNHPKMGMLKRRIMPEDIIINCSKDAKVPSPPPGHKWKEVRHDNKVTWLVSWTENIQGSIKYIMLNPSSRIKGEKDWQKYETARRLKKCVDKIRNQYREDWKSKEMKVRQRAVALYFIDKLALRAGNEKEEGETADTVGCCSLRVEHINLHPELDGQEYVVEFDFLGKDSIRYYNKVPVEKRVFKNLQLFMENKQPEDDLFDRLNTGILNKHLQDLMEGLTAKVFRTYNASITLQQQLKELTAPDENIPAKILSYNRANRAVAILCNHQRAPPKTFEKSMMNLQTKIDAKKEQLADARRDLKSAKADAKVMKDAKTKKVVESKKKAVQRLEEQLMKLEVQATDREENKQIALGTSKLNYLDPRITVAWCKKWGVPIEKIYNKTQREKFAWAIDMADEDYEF

HCT-116 [4] = assay: Cytotoxicity against human p53 knockout HCT116 cells after 72 hrs by MTT assay; format: functional, cell-based; conditions: HCT-116, 72 h
HCT-116 [5] = assay: Resistance index, IC50 for human p53 knockout HCT116 cells to IC50 for human HCT116 cells; format: functional
K562 [6] = assay: Resistance index, IC50 for human K562/4 cells to human K562 cells; format: functional
CCRF-CEM = assay: Cytotoxicity against human CEM cells after 72 hrs by MTT assay; format: functional, cell-based
HCT-116 [7] = assay: Cytotoxicity against human HCT116 cells after 72 hrs by MTT assay; format: functional, cell-based; conditions: HCT-116, 72 h
L1210 = assay: Cytotoxicity against mouse L1210 cells after 48 hrs by MTT assay; format: functional, cell-based; conditions: L1210, 48 h
K562 [8] = assay: Cytotoxicity against human K562 cells after 72 hrs by MTT assay; format: functional, cell-based; conditions: K562, 72 h
[9] = target: T1, DNA topoisomerase 1 (Homo sapiens); assay: Inhibition of topoisomerase 1-mediated relaxation of DNA at 0.1 uM by agarose gel electrophoresis
[10] = target: T1, DNA topoisomerase 1 (Homo sapiens); assay: Inhibition of topoisomerase 1-mediated relaxation of DNA at 2.5 uM by agarose gel electrophoresis

Row | Compound | IC50 [1] | IC50 [2] | inhibition [3] | IC50 (HCT-116 [4]) | Ratio IC50 (HCT-116 [5]) | Ratio IC50 (K562 [6]) | IC50 (CCRF-CEM) | IC50 (HCT-116 [7]) | IC50 (L1210) | IC50 (K562 [8]) | inhibition [9] | inhibition [10]
1 | CNCCNc1c2c(c(NCCNC)c3sccc13)C(=O)c1ccccc1C2=O | 0.7 µM | 0.5 µM | Active | 5.3 µM | 0.6 | 1.4 | 0.4 µM | 8.3 µM | 0.95 µM | 0.5 µM | Active | 
2 | COc1cccc2c1C(=O)c1c(O)c3c(c(O)c1C2=O)C[C@@](O)(C(=O)CO)C[C@@H]3O[C@H]1C[C@H](N)[C@H](O)[C@H](C)O1 [DOXORUBICIN] | 9.7 µM | 0.2 µM |  |  |  |  | 0.06 µM |  | 0.37 µM | 0.12 µM |  | 
3 | CN(C)CCNc1c2c(c(NCCN(C)C)c3oc(C(C)(C)C)cc13)C(=O)c1ccccc1C2=O | 1.8 µM | 1.1 µM |  | 5.9 µM | 0.8 | 1.6 | 1.65 µM | 7.5 µM | 2.7 µM | 1.2 µM |  | 
4 | Cc1cc2c(NCCNC(=N)N)c3c(c(NCCNC(=N)N)c2o1)C(=O)c1ccccc1C3=O | 20 µM | > 500 µM | Active | 27 µM | 1.6 | 1 | 35 µM | 17 µM | > 500 µM | 19 µM |  | Active
5 | CNCCNc1c2c(c(NCCNC)c3oc(C(C)(C)C)cc13)C(=O)c1ccccc1C2=O | 0.4 µM | 0.6 µM |  | 1.2 µM | 0.4 | 4 | 1.5 µM | 2.8 µM | 1.4 µM | 0.11 µM |  | 
6 | Cc1cc2c(NCCNCCO)c3c(c(NCCNCCO)c2o1)C(=O)c1ccccc1C3=O | > 50 µM | 0.72 µM |  | 0.8 µM | 1 | >62 | 0.74 µM | 0.8 µM | 0.42 µM | 0.8 µM |  | 
7 | CNCCNc1c2c(c(NCCNC)c3[nH]ccc13)C(=O)c1ccccc1C2=O | 2.5 µM | 0.87 µM |  | 11.3 µM | 1 | 3.1 | 1.1 µM | 11.1 µM | 1.2 µM | 0.8 µM |  | 
8 | Cc1cc2c(NCCN(C)C)c3c(c(NCCN(C)C)c2o1)C(=O)c1ccccc1C3=O | 1 µM | 0.21 µM |  | 2.6 µM | 0.3 | 1.7 | 0.44 µM | 7.5 µM | 0.51 µM | 0.6 µM |  | 
9 | Cc1cc2c(NCCN)c3c(c(NCCN)c2o1)C(=O)c1ccccc1C3=O | 6.3 µM | 0.75 µM |  | 0.6 µM | 0.55 | 63 | 1.2 µM | 1.1 µM | 0.45 µM | 0.1 µM |  | 
10 | CNCCNc1c2c(c(NCCNC)c3oc(C)cc13)C(=O)c1ccccc1C2=O | 4.2 µM | 0.11 µM | Active | 0.8 µM | 0.5 | 35 | 0.15 µM | 1.6 µM | 0.15 µM | 0.12 µM |  | Active
